Results published in ChEMBL document CHEMBL1157386, “A C-3 methylated isocembranoid and 10-oxocembranoids from a formosan soft coral, Sinularia grandilobata” (J Nat Prod, 2008).
Converted amounts (≈) assume the structure as drawn. The source made the active and inactive calls. The rule behind the calls is not given here.

Key:
A549 = assay: Cytotoxicity against human A549 cells by MTT assay; format: functional, cell-based
HepG2 = assay: Cytotoxicity against human HepG2 cells by MTT assay; format: functional, cell-based
MDA-MB-23 = assay: (§1) Cytotoxicity against human […] by MTT assay; format: functional, cell-based
MCF7 = assay: Cytotoxicity against human MCF7 cells by MTT assay; format: functional, cell-based
RAW264.7 [1] = assay: Antiinflammatory activity in LPS-stimulated mouse RAW264.7 cells assessed as reduction of iNOS levels at 50 uM by immunoblot analysis relative to control; format: functional
RAW264.7 [2] = assay: Antiinflammatory activity in LPS-stimulated mouse RAW264.7 cells assessed as reduction of COX2 expression by immunoblot analysis relative to control; format: functional, cell-based
RAW264.7 [3] = assay: Induction of COX2 expression in LPS-stimulated mouse RAW264.7 cells at 50 uM by immunoblot analysis relative to control; format: functional
RAW264.7 [4] = assay: Induction of iNOS levels in LPS-stimulated mouse RAW264.7 cells at 50 uM by immunoblot analysis relative to control; format: functional
[5] = as §1; format: functional, cell-based

For `C/C1=C/C(=O)C[C@@H](C)CC/C(C(C)(C)O)=C\C=C(/C)CCC1`, which Activity (A549) is on record?
The Activity was “inactive”.

And the Activity (HepG2)?
The Activity was “inactive”.

What about the Activity (MDA-MB-23) of the same molecule?
The Activity was “inactive”.

What about the Activity (MCF7) of the same molecule?
The Activity was “inactive”.

With `C/C1=C\CCC(=O)[C@H](C)/C=C(/C(C)(C)O)CC[C@H](C)CC(=O)C1` as the molecule, how does the Activity (A549) read?
Its Activity is “inactive”.

What about the Activity (HepG2) of the same molecule?
Its Activity is “inactive”.

And the Activity (MDA-MB-23)?
Its Activity is “inactive”.

And the Activity (MCF7)?
Its Activity is “inactive”.

Which results are given for `CO[C@@]1(C(C)(C)O)/C=C/[C@](C)(O)CC/C=C(\C)CC(=O)C[C@@H](C)CC1` (relative stereo)?
Activity (A549): inactive; Activity (HepG2): inactive; Activity (MDA-MB-23): inactive; Activity (MCF7): inactive

For `C/C1=C\CC[C@]2(C)O[C@H]2/C=C(/C(C)(C)O)CC[C@H](C)CC(=O)C1` (relative stereo) [GRANDILOBATIN B], which Activity (A549) is on record?
The Activity was “inactive”.

What about the Activity (RAW264.7 [1]) of the same molecule?
The Activity was “inactive”.

What about the Activity (RAW264.7 [2]) of the same molecule?
The Activity was “inactive”.

And the Activity (HepG2)?
The Activity was “inactive”.

What about the Activity (MDA-MB-23) of the same molecule?
The Activity was “inactive”.

What about the Activity (RAW264.7 [3]) of the same molecule?
Its Activity is 117.3%.

What about the Activity (RAW264.7 [4]) of the same molecule?
Its Activity is 112.4%.

What about the Activity (MCF7) of the same molecule?
The Activity was “inactive”.

With `C/C1=C\C=C(\C(C)(C)O)CC[C@H](C)CC(=O)C/C(C)=C/CC1` [GRANDILOBATIN D] as the molecule, how does the Activity (A549) read?
The Activity was “inactive”.

And the Activity (RAW264.7 [1])?
The Activity was 28.7%.

And the Activity (RAW264.7 [2])?
The Activity was “inactive”.

What about the Activity (HepG2) of the same molecule?
Its Activity is “inactive”.

And the IC50 [5]?
The IC50 was 15.8 µg/mL (≈ 51.9 µM).

What about the Activity (MCF7) of the same molecule?
Its Activity is “inactive”.
